From patent US20120053076A1, “METHODS FOR IDENTIFICATION” (Cambridge Enterprise Limited, priority 2009, published 2012) come the findings set out here.

One assay has as its system fetal rat pituicytes. Put plainly: Rat pituicyte GH suppression assay. It is filed as cell-based. The text has this:
Two different assays for “classical” sstr2 functions were adopted: (1) cultured foetal rat pituitary cells secreted growth hormone which is inhibited by sstr2 agonists in a dose-dependent fashion and (2) selected glucose-sensitive sub-clones of the human Panc-1 cell line secrete insulin which is inhibited by sstr2 agonists in a dose-dependent fashion.
Methods: Cultures of fetal rat pituicytes were established exactly as previously described (Murray et al. (2004) J. Clin. Endocrinol. Metab. 89:3027-32) by enzymatic dispersion. After 48 hrs in low glucose DMEM plus 10% FCS, cells in 48 well plates (5×10^4 cells per well) were washed for 4 hrs in serum-free DMEM and then incubated with test agents at various concentrations for a further 24 hrs in serum-free DMEM. At the end of this period, the conditioned medium was harvested, any cell debris removed by centrifugation and assayed for GH using a commercially available ELISA (Linco; cat# EZRMGH-45K) in accordance with the manufacturer's instructions.
Results were reported as the mean±SD, expressed as the fold change from cells in the presence of vehicle only.

A further assay relates to THP-1 cells. Nature of the assay: MCP-1 induced THP-1 cell migration, Transwell assay. It is filed as cell-based, human. As for the experimental part: Leukocyte migration was measured using the 96-well format micro Transwell® assay system from Neuroprobe (Gaithersburg, Md., USA). In principle, this assay consists of two chambers separated by a porous membrane. The chemoattractant is placed in the lower compartment and the cells are placed in the upper compartment.
The method was performed essentially as previously described (Reckless & Grainger (1999) Biochem. J. 340:803-11).
First, the cell suspension to be placed in the upper compartment was prepared. The THP-1 cells were pelleted by centrifugation (770×g; 4 mins) and washed with Geys Balanced Salt Solution with 1 mg/ml BSA (GBSS+BSA). This wash was then repeated, and the cells re-pelleted before being resuspended in a small volume of GBSS+BSA for counting, for example using a standard haemocytometer.
The volume of GBSS+BSA was then adjusted depending on the number of cells present so that the cells were at final density of 4.45×10^6 cells per ml of GBSS+BSA. This ensured that there were 100,000 THP-1 cells in each 25 μl of the solution to be placed in the upper chamber of the plate.
The suspension of THP-1 cells at 4.45×10^6 cells/ml was divided into three pots. […] To the second pot, the BSCI was added at the same concentration as in the first pot, but additionally the sstr2 antagonist was also added (for example BIM 23454 [Tulipano et al. (2002) 143:1218-24] or BIM 23627 were added at 66 nM final concentration from a stock solution in GBSS). To the third pot, GBSS+BSA plus vehicle as appropriate was added so that the volumes in three pots are equal, acting as a control.
Next, the chemoattractant solution to be placed in the lower compartment was prepared. MCP-1 was diluted in GBSS+BSA to give a final concentration of 25 ng/ml (after all additions). Note that, as recommended by Frow et al (Med. Res. Rev. 24:276-98) this is the concentration of MCP-1 which induces maximal migration in this system. This solution was divided into three pots, as for the cell suspension. To one pot, the BSCI was added to the same final concentration as was added to the cell suspension, in the second pot the BSCI and the sstr2 antagonist were both added at the same concentration as previously added to the cell suspension, while to the remaining pot GBSS+BSA plus vehicle as appropriate was added so that the volumes in the three pots were equal.
Once the chemoattractant solutions for the lower wells and cell solutions for the upper chambers were prepared, the migration chamber was assembled. 29 μl of the appropriate chemoattractant solution was placed into the lower well of the chamber. Assays were performed with at least triplicate determinations of each condition. Once all the lower chambers were filled, the porous membrane was applied to the chamber in accordance with the manufacturer's instructions. Finally, 25 μl of the appropriate cell solution was applied to each upper chamber. A plastic lid was placed over the entire apparatus to prevent evaporation.
The assembled chamber was incubated at 37° C., 5% CO2, for 2 hours.
At the end of the incubation, the liquid cell suspension was gently removed from the upper chamber, 20 μl of ice-cold 20 mM EDTA in PBS was added to the upper chamber, and the apparatus was incubated at 4° C. for 15 mins. This procedure caused any cells adhering to the underside of the membrane to fall into the lower chamber.
After this incubation the filter was carefully flushed with GBSS+BSA to wash off the EDTA, and then the filter was removed.
The number of cells migrated into the lower chamber under each condition can then be determined by a number of methods, including direct counting, labelling with fluorescent or radioactive markers or through the use of a vital dye. Typically, we utilised the vital dye MTT.

A further assay has as its target T1, sstr2 (Homo sapiens, UniProt P30874).
T1 construct: with 1×10^6 THP-1 cells in Gey's Balanced Salt Solution; endogenous in cells; host or cells: THP-1 cells (whole cells, 4° C.)
Nature of the assay: Equilibrium binding of [3H]-BN83250 to THP-1 cells. Particulars: competition with [3H]-BN83250. As for the experimental part:
Methods: [^3H]-BN83250 was synthesesized from (S,E)-3-(2′,2′-dimethyldodec-4′-enoylamino)-caprolactam by catalytic hydrogenation using tritium gas over a palladium catalyst (CRB Ltd, Cleveland, UK), yielding the tritiated product at a concentration of […] in ethanol with a specific activity of 220 Ci/mmol. The (S,E)-3-(2′,2′-dimethyldodec-4′-enoylamino)-caprolactam was prepared as follows: (S,S)-3-amino-caprolactam hydro-pyrrolidine-5-carboxylate (10 mmol) and Na2CO3 (30 mmol) in water (30 ml) were added to a solution of 2,2-dimethyl-dodec-4-enoyl chloride (10 mmol) in dichloromethane (30 ml) at ambient temperature and the reaction was stirred for 12 hours. The organic layer was then separated and the aqueous phase was extracted with additional dichloromethane (2×25 ml). The combined organic layers were dried over Na2CO3 and reduced in vacuo. The residue was purified by silica column chromatography (1:1 EtOAc:hexanes to EtOAc) to give […]-3-(2′,2′-dimethyl-dodec-4′-enoyl)amino-caprolactam as a colourless oil (2.12 g, 63%). The radiolabelled compound was stored in the dark at 4° C. until required. Prior to use the specific activity was adjusted by addition of unlabelled BN83250.
For the analysis of binding, individual reactions were set up (in triplicate for each condition), with 1×10^6 THP-1 cells in Gey's Balanced Salt Solution, 10 nM [^3H]-BN83250 (at 50 Ci/mmol) and various concentrations of (S)-3(2′2′-dimethylpropionoylamino)-tetrahydropyridin-2-one (10 pM to 10 μM). Excess (100 μM) unlabelled BN83250 was used to determine the level of non-specific binding. After 2 hours at 4° C. (conditions previously shown to achieve equilibrium binding, and which prevent uptake of the radioligand that would result in an over-estimate of binding) excess label was washed away by centrifugation (3 washes with 5 ml of Gey's Balanced Salt Solution) and the bound radioactivity was determined by scintillation counting of the solubilised cell pellet.

T1 sequence (P30874 whole entry): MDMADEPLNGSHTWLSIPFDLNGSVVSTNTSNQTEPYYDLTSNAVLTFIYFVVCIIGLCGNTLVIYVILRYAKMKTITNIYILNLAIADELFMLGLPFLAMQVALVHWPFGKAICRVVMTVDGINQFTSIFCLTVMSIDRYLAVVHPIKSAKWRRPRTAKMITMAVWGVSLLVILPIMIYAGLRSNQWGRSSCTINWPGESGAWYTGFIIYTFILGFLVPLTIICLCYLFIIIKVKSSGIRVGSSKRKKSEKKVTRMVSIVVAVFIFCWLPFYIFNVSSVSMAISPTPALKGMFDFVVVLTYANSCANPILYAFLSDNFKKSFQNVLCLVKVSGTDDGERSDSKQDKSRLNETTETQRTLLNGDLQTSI

“(S)-3-(2′,2′-dimethyldodecanoyl)amino-caprolactam [BN83250]”: the “Inhibition of GH release, in words” value in the assay on fetal rat pituicytes is given as “inhibited GH release only at much higher concentrations”. The EC50 in the assay on fetal rat pituicytes (Table 3, read-out: Rat pituicyte GH suppression assay ED50) stood at 320 nM. The “Rat pituicyte GH suppression assay Max effect” value with fetal rat pituicytes (Table 3, suppression compared to vehicle) turned out to be 63%. For the same compound, the “Human chemokine-induced THP-1 migration assay Max effect” value with THP-1 cells (Table 3) stood at 100%. The “Chemokine-induced THP-1 cell migration assay (“BSCI” target) Max Effect” value in the assay on THP-1 cells (Table 5) stood at 100%.

`CC(C)(C)C(=O)N[C@H]1CCCNC1=O` [Valerolactam, (S)-3-(2′,2′-dimethylpropionoylamino)-tetrahydropyridin-2-one]: in the assay on fetal rat pituicytes, the “Inhibition of GH release, in words” value is listed as “inhibited GH release only at much higher concentrations”. Besides, the “Hill Slope” value at sstr2 is on record as “approximately −1.0”. Moreover, the Emax in the assay with THP-1 cells (Homo sapiens, THP-1, read-out: Human chemokine-induced THP-1 migration assay Max effect) stood at 100%. In the assay on THP-1 cells (MCP-1 25 ng/ml), the “Inhibition of MCP-1 induced THP-1 cell migration, in words” value is given as “inhibits MCP-1 induced cell migration in a dose-dependent manner”.
